Results published in publication PMC8171112 (Bioorganic & medicinal chemistry, 2021).
Each block holds one molecule with its values, some of them ahead of it.

How the values were obtained:
TET2 [1] = conditions: read-out: IC50 TET2; Figure 3 insert; cited from earlier work
[2] = target: catalytic domain of TET2 (TET2CD) (Homo sapiens, UniProt Q6N021); experiment: ELISA of 5hmC for TET2 activity, cell free; type: biochemical; conditions: for potency relative to NOG: cell free ELISA, more potent than NOG (Figure 1)
[3] = test system: 16 other α-KG/Fe(II) dependent enzymes; conditions: cited from earlier work
TET2CD = TET2CD (Homo sapiens, UniProt Q6N021); experiment: LC-MS/MS analysis to probe TET2CD modification; conditions: TET2CD 10 μM, 2a 100 μM, 2 h, trypsin and chymotrypsin digestion
[4] = test system: TET enzyme (5hmC/5mC) in THP1 cells; type: cell-based; conditions: prodrug esters, three concentrations, 12 h
TET1 [5] = conditions: read-out: IC50 TET1; cited from earlier work
wild type (WT)-TET2 = conditions: cited from earlier work
TET2 [6] = conditions: 10 mM, 0.1 mM α-KG; cited from earlier work
TET1 [7] = conditions: 10 mM, 0.1 mM α-KG; cited from earlier work

- potency relative to NOG [2]: approximately 2 fold
Structure (SMILES): C=C(CC(O)C(=O)O)C(=O)O (centres unmarked) [2a, 2-Hydroxy-4-methylenepentanedioic acid]
- IC50 (TET2 [1]): 9.4 µM
- inhibition of 16 other α-KG/Fe(II) dependent enzymes [3]: does not inhibit
- covalent modification of +160 Da of TET2CD peptides (TET2CD): did not observed covalent modification of +160 Da of any peptide

- potency relative to NOG [2]: approximately 2 fold
Structure (SMILES): C=C(C[C@@H](O)C(=O)O)C(=O)O [16R, (R)-2-Hydroxy-4-methylenepentanedioic acid]

- potency relative to NOG [2]: approximately 2 fold
Structure (SMILES): C=C(C[C@H](O)C(=O)O)C(=O)O [16S, (S)-2-Hydroxy-4-methylenepentanedioic acid]

Structure (SMILES): COC(=O)C(=O)CC(C)C(=O)OC (centres unmarked) [21a]
- TET inhibition in THP1 cells, dot blot [4]: no inhibition

Structure (SMILES): Nc1nc(=O)n(-c2cccc(-c3ccccc3)c2)cc1Cl [Bobcat 339]
- IC50 (TET1 [5]): 33 µM

Structure (SMILES): COC(=O)CCC(=O)C(=O)OC [DMKG, dimethyl-2-ketoglutarate, reference compound]
- TET inhibition in THP1 cells, dot blot [4]: no inhibition

Structure (SMILES): CC(C)CC(NC(=O)C(=O)O)C(=O)O (centres unmarked) [NOG-5]
- effect on wild type (WT)-TET2 (wild type (WT)-TET2): no effect

Structure (SMILES): O=C(O)CC[C@H](O)C(=O)O [S-2-HG]
- inhibition of TET2 activity (TET2 [6]): inhibiting most of TET1 and TET2 activity
- inhibition of TET1 activity (TET1 [7]): inhibiting most of TET1 and TET2 activity

Structure (SMILES): C=C(CC(Cl)C(=O)OC)C(=O)OC (centres unmarked) [compound 9, Dimethyl 2-chloro-4-methylenepentanedioate]
- TET inhibition in THP1 cells, dot blot [4]: good activity consistent with 1a

Structure (SMILES): O=C(O)CCC(=O)C(=O)O [α-KG, α-ketoglutarate, reference compound]
- EC50 ([2]; read-out: EC50, TET2CD dioxygenase activity response to α-KG, ELISA, Figure 5A): 3.5 µM
